The target of one data set is T1, TR/Trx (Homo sapiens, UniProt Q16881).
T1 sequence (Q16881 1-499 isoform Q16881-5): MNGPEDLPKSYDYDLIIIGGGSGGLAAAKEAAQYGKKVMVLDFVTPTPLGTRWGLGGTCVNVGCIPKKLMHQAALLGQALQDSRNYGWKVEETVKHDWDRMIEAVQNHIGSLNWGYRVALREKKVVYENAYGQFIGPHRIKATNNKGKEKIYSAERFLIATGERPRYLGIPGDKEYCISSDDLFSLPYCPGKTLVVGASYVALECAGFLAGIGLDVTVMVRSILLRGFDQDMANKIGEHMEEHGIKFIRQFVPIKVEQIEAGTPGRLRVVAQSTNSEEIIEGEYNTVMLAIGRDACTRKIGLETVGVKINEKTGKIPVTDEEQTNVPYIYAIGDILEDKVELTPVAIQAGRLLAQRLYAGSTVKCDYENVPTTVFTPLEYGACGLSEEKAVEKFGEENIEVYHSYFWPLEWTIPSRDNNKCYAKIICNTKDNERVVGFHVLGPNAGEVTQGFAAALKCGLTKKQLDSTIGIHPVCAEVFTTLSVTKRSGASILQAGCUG
Briefly: Thioredoxin dependent reduction of insulin by human thioredoxin reductase and NADPH (IC50 TR/Trx, 96 well). Format: biochemical. The source says: When referring to the particular system being analyzed IC50 is typically followed by an abbreviation referring to that system (i.e., IC50 TR/Trx for the above described thioredoxin redox system which is comprised of thioredoxin reductase and thioredoxin).
A second plate was used for the assessment of biological activity or as a biological screen. Aliquots of disulfides dissolved in DMSO, were be transferred into 96 well plates. The assay to assess their ability to inhibit thioredoxin reductase measures the thioredoxin dependent reduction of insulin by human thioredoxin reductase and NADPH. The effects of the disulfides on the reduction of Trx by TR were measured spectrophotometrically by following the reduction of NADPH at 339 nm with insulin as the final electron acceptor in a buffered mixture of TR, Trx, NADPH and insulin.

Data set [1] deals with EMT6 mouse mammary tumor cells. Briefly: Cytotoxicity against EMT6 cells in culture (MTT). The following applies: read-out: Disulfide Cytotoxicity (IC50), Table 5, 48 h exposure.
The next data set in a line: in vitro. Particulars: mouse.
The target in data set [2] is T2, Human placental thioredoxin reductase (Homo sapiens, UniProt Q16881).
T2 sequence (Q16881 1-499 isoform Q16881-5): T1 sequence (Q16881 1-499 isoform Q16881-5)
As to the kind of experiment: NADPH oxidation by thioredoxin reductase with the disulfide as substrate, or with thioredoxin and insulin as final electron acceptor and the disulfide as inhibitor. Format: biochemical. The procedure:
The thioredoxin was stored at −20° C. with 5 mM dithiothreitol which was removed before use with a desalting column (PD10, Pharmacia, Uppsala, Sweden).
Asymmetrical 2-imidazolyl disulfides which were used as a basis for further development and identified below in Table 1. In Table I, NADPH oxidation by thioredoxin reductase was measured spectrophotometrically as described with either the disulfide as the electron acceptor (substrate) or with thioredoxin and insulin as the final electron acceptor and the disulfide as inhibitors. The reactions were initiated by the addition of NADPH. Km and Ki values were calculated from Lineweaver-Burk plots of the data.
The compounds of Table 1 were synthesized by a method described previously and recrystallized prior to use. Stock solutions of the disulfides were prepared at 10 mM in ethanol and diluted in aqueous media just prior to use. N-ethylmaleimide (NEM), diamide, and DTT were obtained from Sigma Chemical Co. (St. Louis, Mo.). All other chemicals used were of reagent grade. […]

The test system of data set [3] is MCF-7 breast cancer cells in scid mice. Briefly: Activity against MCF-7 breast cancer cells in scid mice. Format: in vivo. Particulars: for T/C %: tumor volume treated versus control at day 28. An excerpt: This is shown below in Table II.
Where [4] appears, read: Table 4, read-out: Disulfide inhibition of TR/Trx (IC50 TR/Trx) (converted).
The mark [5] stands for this setting: Table 3, read-out: IC50 TR/Trx (converted).

pIC50: −log10 of the molar value. Several values for one entry are separate records, joined by “and”; a condition that tells them apart may be missing. Identical values can stand only once. Like-named read-outs stand apart in the source and are kept apart here. Where only a bound is given, the exact number is not on record here.

The pIC50 is the IC50 on a negative log10 scale, so that one unit is a factor of ten. In general, Km refers to the substrate concentration at which the rate is half of its maximum.

In the case of `CCC(C)SSC(C)c1ccccc1` (stereo not drawn) [Compound F-22], at TR/Trx (Table 4), the “Disulfide inhibition of TR/Trx (IC50 TR/Trx)” value (shortened to “Disulfide inhibition of TR/Trx”) stood at 201 µg/mL. In addition, the pIC50 in data set [1] is < 3.74. The like results for `CCC(C)SSc1ncccc1C(=O)O` (stereo not drawn) [Compound F-23] were, in that order, 81 µg/mL and < 3.74.

`CC(C)CSSc1ncc[nH]1` [Compound G-1]: the “Disulfide inhibition of TR/Trx” value on TR/Trx (Table 4) was determined as 8 µg/mL. In data set [1], the pIC50 is 4.55. `CCC(C)SSc1nccs1` (stereo not drawn) [Compound F-5] registered an IC50 at 48 h in the data set “in vitro” of 34 µM. For the compound `CC(C)SSc1nccn1C` [Compound E-2], the “Disulfide inhibition of TR/Trx” value at TR/Trx (Table 4) is 100 µg/mL. Also, in data set [1], the pIC50 was 4.48.

For the compound `CCSSc1ncc[nH]1` [VI-2, ethyl 2-imidazolyl disulfide], the Type entry in data set [2] (behaviour towards thioredoxin reductase: substrate, inhibitor or non-reactive) is listed as “substrate”. The Km in data set [2] (disulfide as substrate for reduction by thioredoxin reductase, Lineweaver-Burk) is 48 µM and 48.1 µM. In addition, the figures for the Toxicity dead/injected in data set [3] (4 mg/kg/day i.p. for 14 days), in data set [3] (6 mg/kg/day i.p. for 14 days) and in data set [3] (12 mg/kg/day i.p. for 14 days) were 1/8, 0/8 and 4/8, respectively. Moreover, the T/C % in data set [3] (4 mg/kg/day i.p. for 14 days) stood at 83.0%; in data set [3] (6 mg/kg/day i.p. for 14 days) it was 65.8%; in data set [3] (12 mg/kg/day i.p. for 14 days) it was 64.6%. Also, the IC50 at TR/Trx (setting [4]) was 25 µM. In the data set “in vitro”, this compound showed an IC50 at 48 h of 8 µM. On to `CC(O)C(C)SSc1ccccc1` (stereo not drawn) [Compound M-13], for which, in the data set “in vitro”, the IC50 at 48 h was 46 µM. In the case of `CC(SSc1nccs1)c1ccccc1` (stereo not drawn) [Compound J-1], at TR/Trx (setting [5]), the IC50 was 15.8 µM. The compound further had an IC50 at 48 h in “in vitro” of 28 µM. Compound `CC(O)C(C)SSc1nc2ccccc2o1` (stereo not drawn) [Compound M-29] showed an IC50 at 48 h in “in vitro” of 29 µM. For `CCC(C)SSCc1ccccc1` (stereo not drawn) [Compound F-19], the “Disulfide inhibition of TR/Trx” value at TR/Trx (Table 4) was >189 µg/mL. Also, in data set [1], the pIC50 is 3.97. The like results for `CCSSc1nccn1C` [Compound A-2] were, in that order, 80 µg/mL and 4.82. The compound `CCC(C)SSc1nc2ccccc2s1` (stereo not drawn) [Compound F-11] showed a pIC50 in “in vitro” of 4.48. In the case of `Cc1nnc(SSC(C)C)s1` [Compound E-3], the “Disulfide inhibition of TR/Trx” value at TR/Trx (Table 4) came out at 100 µg/mL. Also, the pIC50 in data set [1] is < 3.74. The like results for `CCC(C)SSc1nc2ccccc2o1` (stereo not drawn) [Compound F-12] were, in that order, 22 µg/mL and < 3.74. Taken in the same sequence, the figures for `CCC(C)SSc1nc2ccccc2[nH]1` (stereo not drawn) [Compound F-8] were 7 µg/mL and 4.14. The like results for `CC(C)SSc1ncccc1C(=O)O` [Compound E-23] were, in that order, 40 µg/mL and < 3.74.

For the compound `COc1cccc(CSSC(C)C)c1` [Compound E-20], in data set [1], the pIC50 is < 3.74.

With `CCC(C)SSc1nnc(C)s1` (stereo not drawn) [Compound F-3], the IC50 on TR/Trx (setting [5]) is 68.1 µM. In “in vitro”, this compound showed an IC50 at 48 h of 7 µM.

As for `CC(C)SSc1ccccc1` [Compound E-13], the pIC50 in data set [1] is < 3.74. As for `CCCSSc1ncc[nH]1` [Compound B-1], the “Disulfide inhibition of TR/Trx” value at TR/Trx (Table 4) amounted to 7 µg/mL. Moreover, the pIC50 in data set [1] was 4.68. For `O=C(O)CCSSc1ncccc1C(=O)O` [Compound N-23], the pIC50 in data set [1] is 4.04. For `Cc1ccnc(SSC(C)C)n1` [Compound E-24], at TR/Trx (Table 4), the “Disulfide inhibition of TR/Trx” value came out at 60 µg/mL. The pIC50 in data set [1] is < 3.74. Taken in the same sequence, the figures for `CCC(C)SSc1nccn1C` (stereo not drawn) [Compound F-2] were 51 µg/mL and 4.37.

With `CC(C)SSc1ncc[nH]1` [Compound E-1], the “Disulfide inhibition of TR/Trx” value at TR/Trx (Table 4) was determined as 7 µg/mL. Moreover, the pIC50 in data set [1] was 4.62. For `CCCSSC1CCCC1` [Compound F-27], the IC50 on TR/Trx (setting [4]) is 289 µM. This compound also displayed an IC50 at 48 h in the data set “in vitro” of 51 µM. In the case of `CCC(C)SSc1nccc(C)n1` (stereo not drawn) [Compound F-24], the “Disulfide inhibition of TR/Trx” value on TR/Trx (Table 4) turned out to be 83 µg/mL. Moreover, the pIC50 in data set [1] is < 3.74. Turning to `ClCCCSSCc1ccccc1` [Compound H-19], the pIC50 in data set [1] was 3.97.

For the compound `Cc1ccc2[nH]c(SSCCCCl)nc2c1` [Compound H-9], in data set [1], the pIC50 was 4.18. For `CCC(C)SSc1nc2cc([N+](=O)[O-])ccc2[nH]1` (stereo not drawn) [Compound F-10], the “Disulfide inhibition of TR/Trx” value on TR/Trx (Table 4) is 47 µg/mL. The pIC50 in data set [1] is 4.44. Regarding `CCC(C)SSc1nnc(S)s1` (stereo not drawn) [Compound F-4], the IC50 on TR/Trx (setting [5]) is 117 µM. Also, the IC50 at 48 h in “in vitro” stood at 36 µM.

For the compound `CC(O)C(C)SSc1nc2ccccc2o1` (stereo not drawn) [Compound M-12], the pIC50 in data set [1] was 4.54. Take `Cc1ccnc(SSC(C)C(C)O)n1` (stereo not drawn) [Compound M-24]: in data set [1], the pIC50 is ≤ 3.74.

On to `CC(C)SSc1ncnc2[nH]cnc12` [Compound E-7], for which, in data set [1], the pIC50 is < 3.74. With `CC(C)SSc1nc2cc([N+](=O)[O-])ccc2[nH]1` [Compound E-10], in data set [1], the pIC50 was 4.54.

As for `O=[N+]([O-])c1ccc2[nH]c(SSCCCCl)nc2c1` [Compound H-10], in data set [1], the pIC50 is 4.23. For `CCC(C)SSc1nc(N)nc2[nH]cnc12` (stereo not drawn) [Compound F-6], in data set [1], the pIC50 was 4.64. Still for that read-out and setting: then `CCC(C)SSc1ccccc1` (stereo not drawn) [Compound F-13], with < 3.74. On to `CCC(C)SSCc1cccc(OC)c1` (stereo not drawn) [Compound F-20], for which the “Disulfide inhibition of TR/Trx” value at TR/Trx (Table 4) worked out at 61 µg/mL. In addition, the pIC50 in data set [1] was < 3.74.

Regarding `CC(C)SSC(C)c1ccccc1` (stereo not drawn) [Compound E-22], the negative logarithm of the IC50 (pIC50) in data set [1] is < 3.74. Consider `CCCCSSc1nccn1C` [Compound C-2], for which, on TR/Trx (Table 4), the “Disulfide inhibition of TR/Trx” value was found to be 147 µg/mL. The pIC50 in data set [1] is 4.59. On to `CC(O)C(C)SSCc1ccccc1` (stereo not drawn) [Compound M-19], for which, in data set [1], the pIC50 is 4.04.
